Here are results for 13 compounds from EP0166355A2, “Substituted aminophenyl compounds and acylaminophenyl compounds and pharmaceutical compositions containing them” (Merck & Co., Inc., priority 1984, dated 1986).

In the assay the target is T1, CCK receptor (Rattus norvegicus, UniProt P30551).
T1 construct: The whole pancreas was dissected free of fat tissue and was homogenized; from tissue; host or cells: rat whole pancreas membrane homogenate
T1 sequence (P30551 1-444): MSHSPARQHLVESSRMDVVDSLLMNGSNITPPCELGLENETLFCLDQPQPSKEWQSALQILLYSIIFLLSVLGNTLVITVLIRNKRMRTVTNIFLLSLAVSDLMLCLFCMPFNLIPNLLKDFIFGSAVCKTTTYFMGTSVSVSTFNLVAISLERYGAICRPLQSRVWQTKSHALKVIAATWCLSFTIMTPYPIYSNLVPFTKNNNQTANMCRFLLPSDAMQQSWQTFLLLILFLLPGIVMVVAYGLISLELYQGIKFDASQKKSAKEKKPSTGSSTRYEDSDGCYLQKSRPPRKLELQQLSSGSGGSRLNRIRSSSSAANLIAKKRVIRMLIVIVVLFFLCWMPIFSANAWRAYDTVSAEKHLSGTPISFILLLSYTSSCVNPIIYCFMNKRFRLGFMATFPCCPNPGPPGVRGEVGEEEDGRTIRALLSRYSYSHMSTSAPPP
As to the kind of experiment: CCK Receptor Binding (Pancreas), 125I-CCK-33. Also noted: species or system rats. The protocol: 1. CCK Receptor Binding (Pancreas)
CCK-33 was radiolabeled with ^125 I-Bolton Hunter reagent (2000 Ci/mmole) as described by Sankara et al. (J. Biol. Chem. 254: 9349-9351, 1979). Receptor binding was performed according to Innis and Snyder (Proc. Natl. Acad. Sci. 77: 6917-6921, 1980) with the minor modification of adding the additional protease inhibitors, phenylmethane sulfonyl fluoride and o-phenanthroline. The latter two compounds have no effect on the ^125I-CCK receptor binding assay.
Male Sprague-Dawley rats (200-350g) were sacrificed by decapitation. The whole pancreas was dissected free of fat tissue and was homogenized in 20 volumes of ice-cold 50 mM, Tris HC1 (pH 7.7 at 25°C) with a Brinkmann Polytron PT 10. The homogenates were centrifuged at 48,000 g for 10 min. Pellets were resuspended in Tris Buffer, centrifuged as above and resuspended in 200 volumes of binding assay buffer (50 mM Tris HC1, pH 7.7 at 25°C, 5 mM dithiothrietol, 0.1 mM bacitracin, 1.2 mM phenylmethane sulfonyl fluoride and 0.5 mM o-phenanthroline). For the binding assay, 25 µl of buffer (for total binding) or unlabeled CCK-8 sulfate to give a final concentration of lµM (for nonspecific binding) or the compounds of Formula I (for determination inhibition of 125I-CCK binding) and 25 ul of ^125 I-CCK-33 (30,000-40,000 cpm) were added to 450 µl of the membrane suspensions in microfuge tubes. All assays were run in duplicate or triplicate. The reaction mixtures were incubated at 37°C for 30 minutes and centrifuged in a Beckman Microfuge (4 minutes) immediately after adding 1 ml of ice-cold incubation buffer. The supernatant was aspirated and discarded, pellets were counted with a Beckman gamma 5000. For Scatchard analysis (Ann. N.Y. Acad. Sci. 51: 660, 1949), ^125I-CCK-33 was progressively diluted with increasing concentrations of CCK-33.

Setting [1] is: inhibition of 125I-CCK-33 binding, rat pancreas membranes, 37°C, 30 minutes; read-out: IC50(µM) ^125I-CCK Pancreas.

What is called IC50 is the point on the concentration scale where inhibition reaches its midpoint.

Read-outs that look alike come from different tables or passages of the source. Peptide text beside a SMILES is read from it. * marks the point of attachment. X1 = O=C(c1ccccc1)c1ccccc1N*; Cbz = O=C(OCc1ccccc1)*

Consider `O=C(NC(Cc1cccs1)C(=O)Nc1ccccc1C(=O)c1ccccc1F)c1ccsc1` (racemic) [Example 12, 2-N-(N^a-3-Thienoyl-DL-B-(2-thienyl)alanyl)amino 2'-fluorobenzophenone], for which the IC50 under setting [1] was found to be 1.3 µM.
The same measure, in the same setting: in the case of `O=C(N[C@@H](CC1CNc2ccccc21)C(=O)Nc1ccc(Cl)cc1C(=O)c1ccccc1)c1ccsc1` (single isomer, unassigned) [Example 22B] it was 2.2 µM.
With `CC(C)(C)OC(=O)N[C@@H](Cc1c[nH]c2ccccc12)C(=O)Nc1ccc(Cl)cc1C(=O)c1ccccc1` [Example 2, 2-N-(N-a-Boc-L-tryptophanyl)amino-5-chlorobenzo phenone], the half-inhibitory concentration (IC50) under setting [1] came out at 0.74 µM.
The same measure, in the same setting: the value for `CC(C)(C)OC(=O)N[C@@H](Cc1c[nH]c2ccccc12)C(=O)Nc1ccccc1C(=O)c1ccccc1F` [Example 3, 2-N-(N^a-Boc-L-tryptophanyl)amino-2'-fluorobenzo phenone] was 3.7 µM; that for `CC(C)(C)OC(=O)N[C@@H](Cc1c[nH]c2ccccc12)C(=O)Nc1ccccc1C(=O)c1ccccc1` [Example 5, 2-N-(N^a-Boc-L-tryptophanyl)aminobenzophenone] was 4.8 µM.
Still for that read-out and setting: the value for `O=C(CCc1c[nH]c2ccccc12)Nc1ccc(Cl)cc1C(=O)c1ccccc1` [Example 13, 2-N-[3-(3'indolyl)propanoyl]amino-5-chlorobenzophenone] was 10 µM.
The same measure, in the same setting: the value for `O=C(N[C@@H](Cc1c[nH]c2ccccc12)C(=O)Nc1ccccc1C(=O)c1ccccc1)c1ccc(Cl)cc1` [Example 15, 2-N-(N^α-p-Chlorobenzoyl-L-tryptophanyl)aminobenzophenone] was 0.9 µM; that for `CC(=O)N[C@@H](Cc1c[nH]c2ccccc12)C(=O)Nc1ccccc1C(=O)c1ccccc1` [Example 16, 2-N-(N^a-acetyl-L-tryptophanyl)aminobenzophenone] was 1 µM; that for `O=C(N[C@@H](Cc1c[nH]c2ccccc12)C(=O)Nc1ccccc1C(=O)c1ccccc1)c1ccsc1` [Example 17, 2-N-(N^a-3-thienoyl-L-tryptophanyl)aminobenzophenone] was 0.19 µM.
On to `CC(C)(C)OC(=O)NCC(=O)N[C@@H](Cc1c[nH]c2ccccc12)C(=O)Nc1ccccc1C(=O)c1ccccc1` [Example 18, 2-N-(N^a-Boc-glycyl-L-tryptophanyl)aminobenzophenone], for which the concentration for half-maximal inhibition (IC50) under setting [1] came out at 8 µM.
The same measure, in the same setting: in the case of `CSCC[C@H](NC(=O)OC(C)(C)C)C(=O)NCC(=O)N[C@@H](Cc1c[nH]c2ccccc12)C(=O)Nc1ccccc1C(=O)c1ccccc1` [Example 19, 2-N-(N^a-Boc-L-methionyl-glycyl-L-tryptophanyl)aminobenzophenone] it was 2.4 µM.
`CSCC[C@H](NC(=O)[C@H](Cc1ccc(O)cc1)NC(=O)OCc1ccccc1)C(=O)NCC(=O)N[C@@H](Cc1c[nH]c2ccccc12)C(=O)Nc1ccccc1C(=O)c1ccccc1` [Example 20, 2-N-(N^a-Benzyloxycarbonyl-L-tryosyl-L-methionyl-glycyl-L-tryptophanyl)aminobenzophenone] (Cbz-YMGW-X1): the IC50 (read-out: IC50(µM) ^125I-CCK Pancreas; inhibition of 125I-CCK-33 binding, rat pancreas membranes, 37°C, 30 minutes) stood at 2 µM.
In the case of `O=C(N[C@@H](Cc1c[nH]c2ccccc12)C(=O)Nc1ccc(Cl)cc1C(=O)c1ccccc1)c1ccsc1` [Example 21, 2-N-(N^a-3-thienoyl-L-tryptophanyl)amino-5-chlorobenzophenone], under setting [1], the IC50 is 0.4 µM.
